{"source": "ChEMBL document CHEMBL1146424", "about": "“New Steroidal Alkaloids from the Roots of Buxus sempervirens” (1997)", "key": {"Proteus mirabilis": {"tested_on": "Proteus mirabilis", "assay": "Antibacterial activity against Proteus mirabilis at 200 ug/100 uL by agar well diffusion assay", "format": "functional, organism-based"}, "Escherichia coli": {"tested_on": "Escherichia coli", "assay": "Antibacterial activity against Escherichia coli at 200 ug/100 uL by agar well diffusion assay", "format": "functional, organism-based"}, "Lemna minor [1]": {"tested_on": "Lemna minor", "assay": "Phytotoxicity against Lemna minor L. at 500 ppm", "format": "functional"}, "Lemna minor [2]": {"tested_on": "Lemna minor", "assay": "Phytotoxicity against Lemna minor L. at 5 ppm", "format": "functional"}, "Lemna minor [3]": {"tested_on": "Lemna minor", "assay": "Phytotoxicity against Lemna minor L. at 50 ppm", "format": "functional"}, "Proteus vulgaris": {"tested_on": "Proteus vulgaris", "assay": "Antibacterial activity against Proteus vulgaris at 200 ug/100 uL by agar well diffusion assay", "format": "functional, organism-based"}, "Epidermophyton floccosum": {"tested_on": "Epidermophyton floccosum", "assay": "Antifungal activity against Epidermophyton floccosum at […] after 7 days by tube dilution method", "format": "functional, organism-based"}, "Microsporum canis": {"tested_on": "Microsporum canis", "assay": "Antifungal activity against Microsporum canis at […] after 7 days by tube dilution method", "format": "functional, organism-based"}, "Shigella flexneri": {"tested_on": "Shigella flexneri", "assay": "Antibacterial activity against Shigella flexnerii at 200 ug/100 uL by agar well diffusion assay", "format": "functional, organism-based"}, "Stachybotrys chartarum": {"tested_on": "Stachybotrys chartarum", "assay": "Antifungal activity against Stachybotrys atra at […] after 7 days by tube dilution method", "format": "functional, organism-based"}, "Salmonella typhi": {"tested_on": "Salmonella typhi", "assay": "Antibacterial activity against Salmonella typhi at 200 ug/100 uL by agar well diffusion assay", "format": "functional, organism-based", "conditions": "Salmonella enterica subsp. enterica serovar Typhi"}}, "note": "Active and inactive are the calls of the source. No cut-off for these calls is given here."}
{"smiles": "C[C@@H]([C@H]1[C@H](O)C[C@@]2(C)[C@@H]3CC[C@@H]4C(=CC[C@H](NC(=O)c5ccccc5)C4(C)C)CC3=CC[C@]12C)N(C)C", "note": "[16ALPHA-HYDROXY-NA-BENZOYLBUXADINE]", "values": [{"measurement": "Activity", "setting": "Proteus mirabilis", "result": "Active"}, {"measurement": "Activity", "setting": "Escherichia coli", "result": "Active"}, {"measurement": "Activity", "setting": "Lemna minor [1]", "result": 46, "unit": "%"}, {"measurement": "Activity", "setting": "Lemna minor [2]", "result": 20.3, "unit": "%"}, {"measurement": "Activity", "setting": "Lemna minor [3]", "result": 28.6, "unit": "%"}, {"measurement": "Activity", "setting": "Proteus vulgaris", "result": "Active"}, {"measurement": "Activity", "setting": "Epidermophyton floccosum", "result": "Active"}, {"measurement": "Activity", "setting": "Microsporum canis", "result": "Active"}, {"measurement": "Activity", "setting": "Shigella flexneri", "result": "Active"}, {"measurement": "Activity", "setting": "Stachybotrys chartarum", "result": "Active"}, {"measurement": "Activity", "setting": "Salmonella typhi", "result": "Active"}]}
